Source: the OligoGym collection
Bases are written 5' to 3'; sugars and linkages follow in the same order, as letters with counts (s phosphorothioate, o phosphodiester; PS: all linkages phosphorothioate). C may stand for cytosine or 5-methylcytosine; the collection does not tell. l = locked nucleic acid (LNA); d = 2'-deoxy (DNA)

Molecular target: HIF1A
Experiment: HeLa, 100 nM transfected, 24 h, mean of 3
Details: ASO

Row | Sequence | caspase activation (% of PBS control)
1 | GTTACTGCCTTCTTAC (sugars l2 d1 l1 d11 l1, PS) | 110
2 | GTTACTGCCTTCTTAC (sugars l2 d1 l2 d6 l5, PS) | 474
3 | GTTACTGCCTTCTTAC (sugars l2 d1 l2 d7 l4, PS) | 376
4 | GTTACTGCCTTCTTAC (sugars l2 d1 l2 d8 l3, PS) | 318
5 | GTTACTGCCTTCTTAC (sugars l2 d1 l2 d9 l2, PS) | 161
6 | GTTACTGCCTTCTTAC (sugars l2 d1 l2 d10 l1, PS) | 161
7 | GTTACTGCCTTCTTAC (sugars l2 d2 l1 d6 l5, PS) | 365
8 | GTTACTGCCTTCTTAC (sugars l2 d2 l1 d7 l4, PS) | 324
9 | GTTACTGCCTTCTTAC (sugars l2 d2 l1 d8 l3, PS) | 237
10 | GTTACTGCCTTCTTAC (sugars l2 d2 l1 d9 l2, PS) | 138
11 | GTTACTGCCTTCTTAC (sugars l2 d2 l1 d10 l1, PS) | 158
12 | GTTACTGCCTTCTTAC (sugars l2 d9 l1 d1 l3, PS) | 157
13 | GTTACTGCCTTCTTAC (sugars l2 d9 l1 d2 l2, PS) | 120
14 | GTTACTGCCTTCTTAC (sugars l2 d9 l1 d3 l1, PS) | 107
15 | GTTACTGCCTTCTTAC (sugars l2 d9 l2 d1 l2, PS) | 223
16 | GTTACTGCCTTCTTAC (sugars l2 d9 l2 d2 l1, PS) | 199
17 | GTTACTGCCTTCTTAC (sugars l2 d9 l3 d1 l1, PS) | 333
18 | GTTACTGCCTTCTTAC (sugars l2 d9 l5, PS) | 328
19 | GTTACTGCCTTCTTAC (sugars l2 d10 l1 d1 l2, PS) | 128
20 | GTTACTGCCTTCTTAC (sugars l2 d10 l1 d2 l1, PS) | 123

Row | Sequence | caspase activation (% of PBS control)
21 | GTTACTGCCTTCTTAC (sugars l2 d10 l2 d1 l1, PS) | 151
22 | GTTACTGCCTTCTTAC (sugars l2 d10 l4, PS) | 151
23 | GTTACTGCCTTCTTAC (sugars l2 d11 l1 d1 l1, PS) | 129
24 | GTTACTGCCTTCTTAC (sugars l2 d11 l3, PS) | 122
25 | GTTACTGCCTTCTTAC (sugars l2 d12 l2, PS) | 103
26 | GTTACTGCCTTCTTAC (sugars l2 d13 l1, PS) | 102
27 | GTTACTGCCTTCTTAC (sugars l3 d1 l1 d6 l5, PS) | 474
28 | GTTACTGCCTTCTTAC (sugars l3 d1 l1 d7 l4, PS) | 324
29 | GTTACTGCCTTCTTAC (sugars l3 d1 l1 d8 l3, PS) | 264
30 | GTTACTGCCTTCTTAC (sugars l3 d1 l1 d9 l2, PS) | 185
31 | GTTACTGCCTTCTTAC (sugars l3 d1 l1 d10 l1, PS) | 185
32 | GTTACTGCCTTCTTAC (sugars l3 d8 l1 d1 l3, PS) | 197
33 | GTTACTGCCTTCTTAC (sugars l3 d8 l1 d2 l2, PS) | 204
34 | GTTACTGCCTTCTTAC (sugars l3 d8 l1 d3 l1, PS) | 198
35 | GTTACTGCCTTCTTAC (sugars l3 d8 l2 d1 l2, PS) | 243
36 | GTTACTGCCTTCTTAC (sugars l3 d8 l2 d2 l1, PS) | 273
37 | GTTACTGCCTTCTTAC (sugars l3 d8 l3 d1 l1, PS) | 360
38 | GTTACTGCCTTCTTAC (sugars l3 d8 l5, PS) | 379
39 | GTTACTGCCTTCTTAC (sugars l3 d9 l1 d1 l2, PS) | 188
